Experimental data: patent US20120107385A1, “METHOD OF TREATING CONDITIONS ASSOCIATED WITH OVERACTIVE BLADDER” (priority 2010, published 2012)

Assay: Plasma oxybutynin and N-desethyloxybutynin following oral and intravaginal administration in dogs (14 day study)
Procedure: A study was conducted to determine the levels of oxybutynin and its active metabolite, N-desethyloxybutynin, present in plasma following oral and intravaginal administration of oxybutynin in dogs.
A 14 day study was conducted, where 8 young adult females were randomly assigned to 4 groups of 2 dogs each.

- plasma level of oxybutynin at 8 h or more after oral dosing (oral 10 mg/day): ≤ 2.75 ng/mL
- time after dosing at which Cmax of oxybutynin was achieved (plasma): 3 h
Compound: CCN(CC)CC#CCOC(=O)C(O)(c1ccccc1)C1CCCCC1 (centres unmarked) [oxybutynin, 4-diethylaminobut-2-ynyl2-cyclohexyl-2-hydroxy-2-phenyl-ethanoate]
